Reference: ChEMBL document CHEMBL1153960, “Syntheses of novel high affinity ligands for opioid receptors” (Bioorg Med Chem Lett, 2009)

What was measured:
[1] = target: T1, Delta-type opioid receptor (Homo sapiens, UniProt P41143); experiment: biochemical
[2] = target: T2, Kappa-type opioid receptor (Homo sapiens, UniProt P41145); experiment: Agonist activity at human kappa opioid receptor expressed in CHO cells assessed as stimulation of [35S]GTPgammaS binding
[3] = target: T2, Kappa-type opioid receptor; experiment: Antagonist activity against human kappa opioid receptor expressed in CHO cells assessed as inhibition of U50488-stimulated [35S]GTPgammaS binding
[4] = target: T2, Kappa-type opioid receptor; conditions: CHO, 10 uM
[5] = target: T3, Mu-type opioid receptor (Homo sapiens, UniProt P35372); experiment: biochemical
[6] = target: T3, Mu-type opioid receptor; experiment: biochemical; remark: listed apart in the source
Description: Agonist activity at human mu opioid receptor expressed in CHO cells assessed as stimulation of [35S]GTPgammaS binding

[7] = target: T2, Kappa-type opioid receptor; experiment: Displacement of [3H]U69,593 from human kappa opioid receptor expressed in CHO cells after 60 mins by scintillation counting
[8] = target: T1, Delta-type opioid receptor; experiment: biochemical; remark: listed apart in the source
[9] = target: T3, Mu-type opioid receptor; experiment: biochemical; remark: listed apart in the source
[10] = target: T3, Mu-type opioid receptor; conditions: CHO, 10 uM
[11] = target: T1, Delta-type opioid receptor; experiment: biochemical; remark: listed apart in the source
Description: Agonist activity at human delta opioid receptor expressed in CHO cells assessed as stimulation of [35S]GTPgammaS binding

T1 sequence (P41143 whole entry): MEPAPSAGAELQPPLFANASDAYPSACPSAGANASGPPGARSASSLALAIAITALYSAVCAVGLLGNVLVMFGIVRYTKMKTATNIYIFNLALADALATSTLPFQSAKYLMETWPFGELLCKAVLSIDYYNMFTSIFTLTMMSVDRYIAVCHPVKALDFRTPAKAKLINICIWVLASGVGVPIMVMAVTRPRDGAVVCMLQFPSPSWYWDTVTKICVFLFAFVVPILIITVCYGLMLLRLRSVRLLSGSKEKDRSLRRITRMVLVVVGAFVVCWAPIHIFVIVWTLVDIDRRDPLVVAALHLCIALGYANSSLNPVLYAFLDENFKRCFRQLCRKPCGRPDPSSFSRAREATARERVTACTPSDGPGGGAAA
T2 sequence (P41145 whole entry): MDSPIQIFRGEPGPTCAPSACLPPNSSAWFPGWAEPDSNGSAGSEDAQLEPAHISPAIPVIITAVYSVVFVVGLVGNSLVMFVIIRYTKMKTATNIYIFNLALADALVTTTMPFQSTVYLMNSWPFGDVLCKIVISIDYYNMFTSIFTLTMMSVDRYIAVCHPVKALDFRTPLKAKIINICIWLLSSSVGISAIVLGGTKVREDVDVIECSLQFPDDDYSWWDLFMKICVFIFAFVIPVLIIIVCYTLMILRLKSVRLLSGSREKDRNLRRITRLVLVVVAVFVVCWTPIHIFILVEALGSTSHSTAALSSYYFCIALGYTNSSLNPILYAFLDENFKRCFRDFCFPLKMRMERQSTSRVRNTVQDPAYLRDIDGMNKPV
T3 sequence (P35372 whole entry): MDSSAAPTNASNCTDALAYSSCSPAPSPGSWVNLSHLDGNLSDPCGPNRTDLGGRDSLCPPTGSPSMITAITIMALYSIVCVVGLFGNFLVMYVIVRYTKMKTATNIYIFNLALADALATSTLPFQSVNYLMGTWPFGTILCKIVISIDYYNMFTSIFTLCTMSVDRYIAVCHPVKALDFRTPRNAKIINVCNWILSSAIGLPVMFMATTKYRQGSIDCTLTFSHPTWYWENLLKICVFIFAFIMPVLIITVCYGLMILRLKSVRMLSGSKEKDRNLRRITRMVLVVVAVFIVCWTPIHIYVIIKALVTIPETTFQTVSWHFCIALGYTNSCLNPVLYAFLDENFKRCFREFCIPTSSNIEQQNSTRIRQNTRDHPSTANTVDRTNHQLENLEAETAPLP

SMILES	IC50 [1] [nM]	IC50 [5] [nM]	Ki [7] [nM]	Ki [8] [nM]	Ki [9] [nM]	further results
NC(=O)c1ccc2c(c1O)[C@@]13CCCC[C@@]1(O)[C@@H](C2)N(CC1CC1)CC3	5.8					EC50 [2]: 2.3 nM; IC50 [3]: 57 nM
C[N+]1(CC2CC2)CC[C@]23c4c5ccc(O)c4O[C@H]2C(=O)CC[C@@]3(O)[C@H]1C5 (stereo partly specified) [NALTREXONE METHIODIDE]		170				Imax [4]: 60%; EC50 [2]: 9 nM
NC(=O)c1ccc2c3c1O[C@H]1C(=O)CC[C@@]4(O)[C@@H](C2)N(CC2CC2)CC[C@]314		270				EC50 [6]: 4.9 nM
NC(=O)c1ccc2c3c1O[C@H]1c4[nH]c5ccccc5c4C[C@@]4(O)[C@@H](C2)N(CC2CC2)CC[C@]314	0.77		47	0.3	46	
NC(=O)c1ccc2c(c1O)[C@]13CCN(CC4CC4)[C@H](C2)[C@]1(O)Cc1c([nH]c2ccccc12)C3	0.08		0.81	0.025	0.51	IC50 [3]: 28 nM
Oc1ccc2c3c1O[C@H]1CCC[C@@]4(O)[C@@H](C2)N(CC2CC2)CC[C@]314		4.4	0.24	79	0.24	IC50 [3]: 13 nM
NC(=O)c1ccc2c3c1O[C@H]1[C@@H](O)CC[C@@]4(O)[C@@H](C2)N(CC2CCC2)CC[C@]314						Imax [10]: 56%
NC(=O)c1ccc2c(c1O)[C@]13CCN(CC4CCC4)[C@H](C2)[C@]1(O)CC[C@@H](O)C3	130					Imax [4]: 25%; EC50 [11]: 3.7 nM
CN1CC[C@]23c4c5ccc(C(N)=O)c4O[C@H]2C(=O)CC[C@H]3[C@H]1C5				260	1.2	EC50 [6]: 110 nM
NC(=O)c1ccc2c3c1O[C@H]1CCC[C@@]4(O)[C@@H](C2)N(CC2CC2)CC[C@]314		54	16	630	2.5	
NC(=O)c1ccc2c(c1O)[C@]13CCN(CC4CC4)[C@H](C2)[C@]1(O)CCC(=O)C3	6.9	0.88				EC50 [2]: 3.3 nM; IC50 [3]: 38 nM; EC50 [11]: 1.8 nM
C[N+]1(CC2CC2)CC[C@]23c4c5ccc(C(N)=O)c4O[C@H]2C(=O)CC[C@@]3(O)[C@H]1C5 (stereo partly specified)				> 10000	37	
NC(=O)c1ccc2c(c1O)[C@]13CCN(CC4CCC4)[C@H](C2)[C@]1(O)CC[C@H](O)C3						Imax [4]: 36%
CN1CC[C@]23CC(=O)CC[C@H]2[C@H]1Cc1ccc(C(N)=O)c(O)c13			2.3	8.3	0.3	EC50 [2]: 3.9 nM; EC50 [6]: 1.6 nM
